Where “and” joins values, the source holds several entries; their conditions need not be identical. Equal entries are not always repeated. Inconclusive results and toxic doses are left out.
Tested on: P388 leukemia ip, CD2F1 mice, survival T/C
Assay: NCI In Vivo Anticancer Drug Screen. Data for tumor model P388 Leukemia (intraperitoneal) in CD2F1 (CDF1) mice
Conditions: endpoint: median survival time, higher = longer survival
Method in brief: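 Mice carrying the transplanted tumor received test compound or vehicle. Survival was recorded in each group, and the value is the treated-group measurement divided by that of the vehicle-treated control group.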

[1] = dose: 50.0 mg/kg/injection, schedule: Q01DX009 (ip), vehicle: Klucel (hydroxypropylcellulose) (HPC)
[2] = dose: 100.0 mg/kg/injection, schedule: Q01DX009 (ip), vehicle: Klucel (hydroxypropylcellulose) (HPC)
[3] = dose: 200.0 mg/kg/injection, schedule: Q01DX009 (ip), vehicle: Klucel (hydroxypropylcellulose) (HPC)
[4] = dose: 60.0 mg/kg/injection, schedule: Q01DX005 (ip), vehicle: Klucel (hydroxypropylcellulose) (HPC)
[5] = dose: 15.0 mg/kg/injection, schedule: Q01DX005 (ip), vehicle: saline with Tween-80
[6] = dose: 30.0 mg/kg/injection, schedule: Q01DX005 (ip), vehicle: saline with Tween-80
[7] = dose: 60.0 mg/kg/injection, schedule: Q01DX005 (ip), vehicle: saline with Tween-80
[8] = dose: 50.0 mg/kg/injection, schedule: Q01DX005 (ip), vehicle: Klucel (hydroxypropylcellulose) (HPC)
[9] = dose: 100.0 mg/kg/injection, schedule: Q01DX005 (ip), vehicle: Klucel (hydroxypropylcellulose) (HPC)
[10] = dose: 200.0 mg/kg/injection, schedule: Q01DX005 (ip), vehicle: Klucel (hydroxypropylcellulose) (HPC)
[11] = dose: 50.0 mg/kg/injection, schedule: Q01DX005 (ip), vehicle: Klucel + Tween-80
[12] = dose: 100.0 mg/kg/injection, schedule: Q01DX005 (ip), vehicle: Klucel + Tween-80
[13] = dose: 50.0 mg/kg/injection, schedule: Q01DX009 (ip), vehicle: saline
[14] = dose: 50.0 mg/kg/injection, schedule: Q01DX009 (ip), vehicle: saline with Tween-80
[15] = dose: 100.0 mg/kg/injection, schedule: Q01DX009 (ip), vehicle: saline with Tween-80
[16] = dose: 120.0 mg/kg/injection, schedule: Q01DX005 (ip), vehicle: saline with Tween-80
[17] = dose: 100.0 mg/kg/injection, schedule: Q01DX009 (ip), vehicle: saline
[18] = dose: 240.0 mg/kg/injection, schedule: Q01DX005 (ip), vehicle: saline with Tween-80

In the case of `Nc1ccc(C(=O)Oc2ccc(OC(=O)c3ccc(N)cc3)cc2)cc1`, the T/C (dose: 25.0 mg/kg/injection, schedule: Q01DX001 (ip), vehicle: Klucel (hydroxypropylcellulose) (HPC)) is reported as 99 % of control, the T/C (dose: 50.0 mg/kg/injection, schedule: Q01DX001 (ip), vehicle: Klucel (hydroxypropylcellulose) (HPC)) is reported as 96 % of control and the T/C (dose: 100.0 mg/kg/injection, schedule: Q01DX001 (ip), vehicle: Klucel (hydroxypropylcellulose) (HPC)) is reported as 101 % of control.

In the case of `Cc1ccc(NC(=O)NCCCN2CCOCC2)cc1NC(=O)NCCCN1CCOCC1`, the T/C [1] is reported as 104 % of control, the T/C [2] is reported as 100 % of control and the T/C [3] is reported as 96 % of control.

`COc1cc(C2CC(C)(N3CCCC3)Oc3cc4c(cc32)OCO4)cc(OC)c1OC` (stereo not given) was tested, and the T/C [4] was 106 % of control and 109 % of control.

In the case of `O=C(CNC(=O)Nc1ccc(Cl)c(Cl)c1)N/N=C/c1cccc(F)c1`, the T/C [5] is reported as 89 % of control, the T/C [6] is reported as 91 % of control and the T/C [7] is reported as 89 % of control.

`Cc1ccc(S(=O)(=O)c2cnc(N3CCN(C)CC3)nc2N)cc1` was tested, and the T/C (dose: 100.0 mg/kg/injection, schedule: Q04DX002 (ip), vehicle: saline) was 100 % of control, the T/C (dose: 200.0 mg/kg/injection, schedule: Q04DX002 (ip), vehicle: saline) was 100 % of control and the T/C (dose: 400.0 mg/kg/injection, schedule: Q04DX002 (ip), vehicle: saline) was 93 % of control.

In the case of `Cc1cc(=O)oc2cc3oc4c(c3cc12)CCCC4`, the T/C [8] is reported as 97 % of control, the T/C [9] is reported as 92 % of control and the T/C [10] is reported as 88 % of control.

In the case of `C/C(N)=N/OC(c1ccccc1)(c1ccccc1)c1ccccc1`, the T/C [11] is reported as 94 % of control, the T/C [12] is reported as 90 % of control and the T/C (dose: 200.0 mg/kg/injection, schedule: Q01DX005 (ip), vehicle: Klucel + Tween-80) is reported as 93 % of control.

`CC(C)c1[nH]c2ccccc2c1Cn1ccnc1` was tested, and the T/C [8] was 100 % of control and the T/C [9] was 114 % of control.

For `CC1(C)c2ccccc2-c2nc3ccccc3c(N)c2C1O` (stereo not given), the T/C [8] was 104 % of control, the T/C [9] was 100 % of control and the T/C [10] was 104 % of control.

For `COc1c2occc2c(NC(=O)CCl)c2ccc(=O)oc12`, the T/C (dose: 100.0 mg/kg/injection, schedule: Q04DX002 (ip), vehicle: saline with Tween-80) was 100 % of control and the T/C (dose: 200.0 mg/kg/injection, schedule: Q04DX002 (ip), vehicle: saline with Tween-80) was 93 % of control.

`Cc1nc2c(Cl)cccc2c2ccccc12` was tested, and the T/C [8] was 88 % of control, the T/C [9] was 92 % of control and the T/C [10] was 88 % of control.

With `O=c1[nH]c2c(c3c1CCCC3)CC1(CC2)OCCO1` the T/C (dose: 100.0 mg/kg/injection, schedule: Q04DX002 (ip), vehicle: Klucel (hydroxypropylcellulose) (HPC)) was 105 % of control, the T/C (dose: 200.0 mg/kg/injection, schedule: Q04DX002 (ip), vehicle: Klucel (hydroxypropylcellulose) (HPC)) was 100 % of control and the T/C (dose: 400.0 mg/kg/injection, schedule: Q04DX002 (ip), vehicle: Klucel (hydroxypropylcellulose) (HPC)) was 108 % of control.

With `c1ccc2c(NCCCCCCCCCCCCNc3c4ccccc4nc4ccccc34)c3ccccc3nc2c1` the T/C (dose: 1.25 mg/kg/injection, schedule: Q## X009 (ip), vehicle: lactic acid) was 100 % of control and 96 % of control, the T/C (dose: 2.5 mg/kg/injection, schedule: Q## X009 (ip), vehicle: lactic acid) was 99 % of control and 92 % of control and the T/C (dose: 5.0 mg/kg/injection, schedule: Q## X009 (ip), vehicle: lactic acid) was 107 % of control and 110 % of control.

In the case of `C/C(COc1ccc([N+](=O)[O-])cc1)=N/NS(=O)(=O)c1cc(Cl)c(Cl)cc1Cl`, the T/C (dose: 12.5 mg/kg/injection, schedule: Q01DX009 (ip), vehicle: saline) is reported as 101 % of control, the T/C (dose: 25.0 mg/kg/injection, schedule: Q01DX009 (ip), vehicle: saline) is reported as 102 % of control and the T/C [13] is reported as 99 % of control and 87 % of control.

With `Nc1[nH]nc2nc(-c3ccc(Cl)cc3)cnc12` the T/C (dose: 50.0 mg/kg/injection, schedule: Q04DX003 (ip), vehicle: saline with Tween-80) was 100 % of control, the T/C (dose: 100.0 mg/kg/injection, schedule: Q04DX003 (ip), vehicle: saline with Tween-80) was 100 % of control and the T/C (dose: 200.0 mg/kg/injection, schedule: Q04DX003 (ip), vehicle: saline with Tween-80) was 100 % of control.

For `Cc1ccc(C(=O)Nc2ccncc2)cc1`, the T/C (dose: 6.25 mg/kg/injection, schedule: Q01DX009 (ip), vehicle: Klucel (hydroxypropylcellulose) (HPC)) was 109 % of control and the T/C (dose: 12.5 mg/kg/injection, schedule: Q01DX009 (ip), vehicle: Klucel (hydroxypropylcellulose) (HPC)) was 99 % of control.

With `CN1C(=O)c2ccccc2N(C)C12CCN(Cc1ccccc1)CC2` the T/C (dose: 50.0 mg/kg/injection, schedule: Q01DX005 (ip), vehicle: distilled water + alcohol) was 103 % of control, the T/C (dose: 100.0 mg/kg/injection, schedule: Q01DX005 (ip), vehicle: distilled water + alcohol) was 100 % of control and the T/C (dose: 200.0 mg/kg/injection, schedule: Q01DX005 (ip), vehicle: distilled water + alcohol) was 97 % of control.

For `Cc1ccc(S(=O)c2cc(C(C)(C)C)cc(C(C)(C)C)c2O)cc1` (stereo not given), the T/C [14] was 103 % of control, the T/C [15] was 110 % of control and the T/C (dose: 200.0 mg/kg/injection, schedule: Q01DX009 (ip), vehicle: saline with Tween-80) was 88 % of control.

`NC(=O)C(CCc1nc2ccccc2[nH]1)NS(=O)(=O)c1ccccc1` (stereo not given) was tested, and the T/C [1] was 102 % of control, the T/C [2] was 101 % of control and the T/C [3] was 102 % of control.

In the case of `O=C(C1CC2CCN1CC2)N1CCN(C(=O)C2CC3CCN2CC3)CC1` (stereo not given), the T/C (dose: 1.56 mg/kg/injection, schedule: Q01DX005 (ip), vehicle: saline) is reported as 98 % of control, the T/C (dose: 3.12 mg/kg/injection, schedule: Q01DX005 (ip), vehicle: saline) is reported as 102 % of control and 96 % of control and the T/C (dose: 6.25 mg/kg/injection, schedule: Q01DX005 (ip), vehicle: saline) is reported as 97 % of control. The T/C [7] was 101 % of control and the T/C [16] was 101 % of control.

`O=C1C2C3C=CC(C2C(=O)N1CO)C1C2C(=O)N(CO)C(=O)C2C31` (stereo not given) was tested, and the T/C (dose: 12.5 mg/kg/injection, schedule: Q01DX009 (ip), vehicle: water) was 105 % of control, the T/C (dose: 25.0 mg/kg/injection, schedule: Q01DX009 (ip), vehicle: water) was 157 % of control and the T/C [14] was 195 % of control. For the same compound, the T/C (dose: 50.0 mg/kg/injection, schedule: Q01DX009 (ip), vehicle: water) was 208 % of control.

`CC(=O)Nc1ccc2c(c1)N(O)C(=O)C2(C)C` was tested, and the T/C [8] was 97 % of control, the T/C [9] was 95 % of control and the T/C [10] was 102 % of control.

With `Cc1cc(OC(=O)c2c(-c3c(Cl)cccc3Cl)noc2C)n(-c2ccc(NC(=O)c3c(-c4c(Cl)cccc4Cl)noc3C)cc2)n1` the T/C [13] was 93 % of control, the T/C [17] was 89 % of control and the T/C (dose: 200.0 mg/kg/injection, schedule: Q01DX009 (ip), vehicle: saline) was 88 % of control.

With `CC1(C)OC(=O)C2(O1)C(=O)C1CCCCC12C` (stereo not given) the T/C [7] was 100 % of control, the T/C [16] was 95 % of control and the T/C [18] was 95 % of control.

`Nc1nc(N)c2cc(S(=O)(=O)c3nc(-c4ccccc4)cs3)ccc2n1` was tested, and the T/C [4] was 98 % of control, the T/C (dose: 120.0 mg/kg/injection, schedule: Q01DX005 (ip), vehicle: Klucel (hydroxypropylcellulose) (HPC)) was 98 % of control and the T/C (dose: 240.0 mg/kg/injection, schedule: Q01DX005 (ip), vehicle: Klucel (hydroxypropylcellulose) (HPC)) was 105 % of control.

With `O=C(O)c1c2c(nc3ccccc13)CCCC2` the T/C [11] was 94 % of control and the T/C [12] was 107 % of control.

`O=C(NCCCCNCCCNC(=O)c1ccc([N+](=O)[O-])cc1)c1ccc([N+](=O)[O-])cc1` was tested, and the T/C [7] was 97 % of control, the T/C [16] was 92 % of control and the T/C [18] was 98 % of control.

With `CN(C)CCC1C2CC3CC(C2)CC1C3` (stereo not given) the T/C [13] was 94 % of control and the T/C [17] was 94 % of control.

In the case of `COc1cc(OC)c(/C=N/NC(=S)NC23CC4CC(CC(C4)C2)C3)c(OC)c1`, the T/C [5] is reported as 94 % of control, the T/C [6] is reported as 97 % of control and the T/C [18] is reported as 89 % of control.

For `NC(=Nc1ccccc1)N(c1ccccc1)c1ccc([N+](=O)[O-])cc1`, the T/C (dose: 7.5 mg/kg/injection, schedule: Q01DX009 (ip), vehicle: saline with Tween-80) was 92 % of control, the T/C (dose: 15.0 mg/kg/injection, schedule: Q01DX009 (ip), vehicle: saline with Tween-80) was 100 % of control and the T/C (dose: 30.0 mg/kg/injection, schedule: Q01DX009 (ip), vehicle: saline with Tween-80) was 91 % of control.

`COC(=O)C(Sc1ccc(Cl)cc1)C1SC(=S)N(C)C1=O` (stereo not given) was tested, and the T/C (dose: 12.5 mg/kg/injection, schedule: Q01DX009 (ip), vehicle: saline with Tween-80) was 96 % of control, the T/C (dose: 25.0 mg/kg/injection, schedule: Q01DX009 (ip), vehicle: saline with Tween-80) was 116 % of control and 88 % of control and the T/C [14] was 104 % of control and 112 % of control. The T/C [15] was 103 % of control and 107 % of control.
